Measured values from patent US20060110803A1 (Crucell Holland B.V., priority 2003, published 2006).

Tested on: antibodies in sera of individuals which have been and/or are infected by SARS-CoV (SARS-green, SARS-yellow, 1a, 1b, 2, 6, 37, 62, London)
Type: binding, human

Row | Sequence | recognition by sera of SARS-CoV infected individuals, looped/cyclic form | recognition by sera of SARS-CoV infected individuals, linear form
1 | AKNLNESLIDLQELG [SEQ ID NO:1186] | recognized in looped/cyclic form | 
2 | AKTSVDCNMYICGDS [SEQ ID NO:742] |  | recognized in linear form
3 | ALNTLVKQLSSNFGA [SEQ ID NO:968] | recognized in looped/cyclic form | 
4 | ALVSGTATAGWTFGA [SEQ ID NO:886] |  | recognized in linear form
5 | AQALNTLVKQLSSNF [SEQ ID NO:966] | recognized in looped/cyclic form | 
6 | ATAGWTFGAGAALQI [SEQ ID NO:892] |  | recognized in linear form
7 | CNMYICGDSTECANL [SEQ ID NO:748] |  | recognized in linear form
8 | CTPPALNCYWPLNDY [SEQ ID NO:495] | recognized in looped/cyclic form | 
9 | DCNMYICGDSTECAN [SEQ ID NO:747] |  | recognized in linear form
10 | DKVEAEVQIDRLITG [SEQ ID NO:995] | recognized in looped/cyclic form | 
11 | DKYFKNHTSPDVDLG [SEQ ID NO:1149] | recognized in looped/cyclic form | 
12 | DPLQPELDSFKEELD [SEQ ID NO:1137] | recognized in looped/cyclic form | 
13 | DRLNEVAKNLNESLI [SEQ ID NO:1180] | recognized in looped/cyclic form | 
14 | DSFKEELDKYFKNHT [SEQ ID NO:1144] | recognized in looped/cyclic form | 
15 | DVVNQNAQALNTLVK [SEQ ID NO:960] | recognized in looped/cyclic form | 
16 | ELDKYFKNHTSPDVD [SEQ ID NO:1147] | recognized in looped/cyclic form | 
17 | ELDSFKEELDKYFKN [SEQ ID NO:1142] | recognized in looped/cyclic form | 
18 | ESLTTTSTALGKLQD [SEQ ID NO:946] | recognized in looped/cyclic form | 
19 | EVAKNLNESLIDLQE [SEQ ID NO:1184] | recognized in looped/cyclic form | 
20 | EVMPVSMAKTSVDCN [SEQ ID NO:735] | recognized in looped/cyclic form | 
21 | FIAGLIAIVMVTILL [SEQ ID NO:1216] | recognized in looped/cyclic form | 
22 | FIFLLFLTLTSGSDL [SEQ ID NO:41] | recognized in looped/cyclic form | 
23 | FKNHTSPDVDLGDIS [SEQ ID NO:1152] | recognized in looped/cyclic form | 
24 | FLLFLTLTSGSDLDR [SEQ ID NO:43] | recognized in looped/cyclic form | 
25 | FLTLTSGSDLDRCTT [SEQ ID NO:46] | recognized in looped/cyclic form | 
26 | FNGLTVLPPLLTDDM [SEQ ID NO:865] | recognized in looped/cyclic form | 
27 | FSPDGKPCTPPALNC [SEQ ID NO:488] |  | recognized in linear form
28 | GFIAGLIAIVMVTIL [SEQ ID NO:1215] | recognized in looped/cyclic form | 
29 | GSDLDRCTTFDDVQA [SEQ ID NO:52] | recognized in looped/cyclic form | 
30 | GTATAGWTFGAGAAL [SEQ ID NO:890] |  | recognized in linear form
